Results as given in ChEMBL document CHEMBL5528047, “A Potent SOS1 PROTAC Degrader with Synergistic Efficacy in Combination with KRASG12C Inhibitor” (J Med Chem, 2024).
Active and inactive are the calls of the source. No cut-off for these calls is given here.

Assays:
[1] = target: T1, von Hippel-Lindau disease tumor suppressor/Son of sevenless homolog 1 (Homo sapiens, UniProt Q07889+P40337); assay: Protac activity at VHL/SOS1 in human K562 cells assessed as SOS1 degradation at 1 uM by Western blotting analysis relative to control; type: cell-based
Target sequence in this assay (P40337 whole entry, looked up): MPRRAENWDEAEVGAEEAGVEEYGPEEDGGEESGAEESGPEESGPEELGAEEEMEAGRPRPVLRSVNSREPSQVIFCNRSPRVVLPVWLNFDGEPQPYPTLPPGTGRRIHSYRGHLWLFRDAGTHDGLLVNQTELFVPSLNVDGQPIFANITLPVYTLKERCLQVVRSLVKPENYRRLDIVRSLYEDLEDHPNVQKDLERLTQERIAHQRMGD
Target sequence in this assay (Q07889 whole entry, looked up): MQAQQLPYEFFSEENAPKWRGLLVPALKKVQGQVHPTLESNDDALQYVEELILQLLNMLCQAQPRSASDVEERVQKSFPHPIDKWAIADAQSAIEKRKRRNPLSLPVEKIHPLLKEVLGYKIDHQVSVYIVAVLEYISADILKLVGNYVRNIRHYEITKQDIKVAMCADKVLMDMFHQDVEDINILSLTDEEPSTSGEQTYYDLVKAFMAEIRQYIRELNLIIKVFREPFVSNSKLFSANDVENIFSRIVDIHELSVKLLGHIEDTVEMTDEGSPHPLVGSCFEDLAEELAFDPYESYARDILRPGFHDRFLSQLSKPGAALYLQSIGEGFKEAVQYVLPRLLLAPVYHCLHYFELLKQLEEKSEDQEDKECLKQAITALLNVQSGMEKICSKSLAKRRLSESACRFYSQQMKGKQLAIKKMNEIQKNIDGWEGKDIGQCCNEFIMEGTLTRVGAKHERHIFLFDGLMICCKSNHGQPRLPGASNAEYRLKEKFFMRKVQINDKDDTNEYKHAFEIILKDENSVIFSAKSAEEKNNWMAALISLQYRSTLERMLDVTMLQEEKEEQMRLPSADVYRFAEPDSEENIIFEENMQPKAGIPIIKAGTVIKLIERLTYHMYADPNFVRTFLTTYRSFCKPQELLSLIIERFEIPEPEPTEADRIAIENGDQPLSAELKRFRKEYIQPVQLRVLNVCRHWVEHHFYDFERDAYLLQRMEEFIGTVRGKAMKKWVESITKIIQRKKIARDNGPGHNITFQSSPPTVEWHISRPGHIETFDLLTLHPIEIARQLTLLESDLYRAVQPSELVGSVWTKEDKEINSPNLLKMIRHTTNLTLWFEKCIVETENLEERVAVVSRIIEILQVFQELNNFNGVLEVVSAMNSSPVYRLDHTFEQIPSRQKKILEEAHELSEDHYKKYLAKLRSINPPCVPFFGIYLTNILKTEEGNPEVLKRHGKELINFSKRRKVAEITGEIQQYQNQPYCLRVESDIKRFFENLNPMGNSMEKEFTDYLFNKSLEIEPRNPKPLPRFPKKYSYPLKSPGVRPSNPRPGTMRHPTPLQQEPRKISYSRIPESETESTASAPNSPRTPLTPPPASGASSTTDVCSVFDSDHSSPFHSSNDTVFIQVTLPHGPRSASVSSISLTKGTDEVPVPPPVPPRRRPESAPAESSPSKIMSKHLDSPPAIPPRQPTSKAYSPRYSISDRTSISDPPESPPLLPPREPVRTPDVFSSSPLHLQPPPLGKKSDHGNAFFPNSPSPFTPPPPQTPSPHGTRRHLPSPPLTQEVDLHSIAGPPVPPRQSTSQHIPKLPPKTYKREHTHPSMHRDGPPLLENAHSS

[2] = target: T1, von Hippel-Lindau disease tumor suppressor/Son of sevenless homolog 1; assay: Protac activity at VHL/SOS1 in human K562 cells assessed as SOS1 degradation incubated for 24 hrs by Western blotting analysis; type: cell-based
[3] = target: T1, von Hippel-Lindau disease tumor suppressor/Son of sevenless homolog 1; assay: Protac activity at VHL/SOS1 in human K562 cells assessed as SOS1 degradation at 1 uM incubated for 96 hrs by Western blotting analysis; type: cell-based
Target sequence in this assay (P40337 whole entry, looked up): as the sequence (P40337 whole entry, looked up) above
Target sequence in this assay (Q07889 whole entry, looked up): as the sequence (Q07889 whole entry, looked up) above

[4] = target: T1, von Hippel-Lindau disease tumor suppressor/Son of sevenless homolog 1; assay: Protac activity at VHL/SOS1 in human MIA PaCa-2 cells assessed as SOS1 degradation at 1 uM incubated for 96 hrs by Western blotting analysis; type: cell-based
Target sequence in this assay (P40337 whole entry, looked up): as the sequence (P40337 whole entry, looked up) above
Target sequence in this assay (Q07889 whole entry, looked up): as the sequence (Q07889 whole entry, looked up) above

[5] = target: T1, von Hippel-Lindau disease tumor suppressor/Son of sevenless homolog 1; assay: Protac activity at VHL/SOS1 in human MIA PaCa-2 cells assessed as SOS1 degradation at 1 uM preincubated with VHL ligand V1 for 2 hrs followed by compound addition and measured after 3 hrs by Western blotting analysis; type: cell-based
Target sequence in this assay (P40337 whole entry, looked up): as the sequence (P40337 whole entry, looked up) above
Target sequence in this assay (Q07889 whole entry, looked up): as the sequence (Q07889 whole entry, looked up) above

[6] = target: T1, von Hippel-Lindau disease tumor suppressor/Son of sevenless homolog 1; assay: Protac activity at VHL/SOS1 in human K562 cells assessed as SOS1 degradation at 1 uM preincubated with VHL ligand V1 for 2 hrs followed by compound addition and measured after 2 hrs by Western blotting analysis; type: cell-based
Target sequence in this assay (P40337 whole entry, looked up): as the sequence (P40337 whole entry, looked up) above
Target sequence in this assay (Q07889 whole entry, looked up): as the sequence (Q07889 whole entry, looked up) above

NCI-H358 [7] = assay: Inhibition of colony formation in human NCI-H358 cells at 1 to 9 uM incubated for 10 days by crystal violet staining based assay; type: functional, cell-based; conditions: dose 1-9 µM, time 10.0 day
[8] = AUC(0 to t) in ICR mouse at 10 mg/kg, po measured upto 24 hrs by LC-MS/MS analysis; type: ADME, organism-based; conditions: in vivo
K562 = assay: Antitumor activity against human K562 cells xenografted in NOD-SCID mouse assessed as tumor growth inhibition at 25 mg/kg, ip administered as 5 days on and 2 days off schedule for 21 days; type: functional; conditions: K562, 120 h, time 5 day, read-out: TGI
[9] = Toxicity in NOD-SCID mouse assessed as body weight loss at 5 to 25 mg/kg, ip administered as 5 days on and 2 days off schedule for 21 days; type: organism-based; conditions: in vivo, 120 h, dose 5-25 mg/kg, time 5 day
MIA PaCa-2 = assay: Induction of apoptosis in human MIA PaCa-2 cells assessed as increase in cleaved PARP-1 level incubated for 24 hrs in presence of 4-((S)-4-acryloyl-2-methylpiperazin-1-yl)-6-fluoro-7-(2-fluoro-6-hydroxyphenyl)-1-(2-isopropyl-4-methylpyridin-3-yl)pyrido[2,3-d]pyrimidin-2(1H)-one by Western blotting assay; type: functional, cell-based
NCI-H358 [10] = assay: Antitumor activity against human NCI-H358 cells xenografted in BALB/c mouse assessed as tumor growth inhibition at 30 mg/kg, ip administered once daily for 28 days in presence of 10 mg/kg 4-((S)-4-acryloyl-2-methylpiperazin-1-yl)-6-fluoro-7-(2-fluoro-6-hydroxyphenyl)-1-(2-isopropyl-4-methylpyridin-3-yl)pyrido[2,3-d]pyrimidin-2(1H)-one; type: functional; conditions: NCI-H358, 672 h, time 28 day, read-out: TGI

With COc1cc2nc(C)nc(N[C@H](C)c3cc(N)cc(C(F)(F)F)c3)c2cc1OCCCCC(=O)N[C@H](C(=O)N1C[C@H](O)C[C@H]1C(=O)NCc1ccc(-c2scnc2C)cc1)C(C)(C)C the Activity [1] was 89.8%, the Activity [2] was “Dose-Dependent Effect” and the DC50 [2] was 130 nM. For the same compound, the Activity [3] was “Active”, the Activity [4] was “Active” and the Activity [5] was “inactive”. For the same compound, the Activity [6] was “inactive”, the inhibition (NCI-H358 [7]) was “Active” and the AUC(0-t) at 24 h [8] was 4260 ng·h/mL. For the same compound, the inhibition in vivo at 25 mg/kg (K562) was 72.3%, the Activity [9] was “Non-Toxic” and the Activity (MIA PaCa-2) was “Active”. For the same compound, the inhibition in vivo at 30 mg/kg (NCI-H358 [10]) was 78.8%.
